# Key:
# Human melanocortin (MC5) = target: T1, Human melanocortin (MC5) (Homo sapiens, UniProt P33032); assay: Radioligand binding, human melanocortin MC5 membranes, FlashPlate, [125I]-NDP-αMSH; conditions: compound at 10 μM, [125I]-NDP-αMSH; for A5: inhibition of radioligand binding: FlashPlate
# T1 construct: purchased Perkin Elmer Biosignal
# Procedure, shortened: (§1)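 Cloned human receptor membranes were coated onto FlashPlate wells and incubated with radioligand and compound (added from a 0.5 mM DMSO daughter plate) for 1 hour at room temperature in the dark. Scintillation counting gave percent inhibition, with DMSO defining total and reference ligand defining non-specific binding.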
# Human Melanocortin (MC3) = target: T2, Human Melanocortin (MC3) (Homo sapiens, UniProt P41968); assay: Radioligand binding, human melanocortin MC3 membranes, FlashPlate, [125I]-NDP-αMSH; conditions: compound at 10 μM, [125I]-NDP-αMSH; for A3: inhibition of radioligand binding: FlashPlate
# T2 construct: purchased Perkin Elmer Biosignal
# T2 sequence (P41968 whole entry): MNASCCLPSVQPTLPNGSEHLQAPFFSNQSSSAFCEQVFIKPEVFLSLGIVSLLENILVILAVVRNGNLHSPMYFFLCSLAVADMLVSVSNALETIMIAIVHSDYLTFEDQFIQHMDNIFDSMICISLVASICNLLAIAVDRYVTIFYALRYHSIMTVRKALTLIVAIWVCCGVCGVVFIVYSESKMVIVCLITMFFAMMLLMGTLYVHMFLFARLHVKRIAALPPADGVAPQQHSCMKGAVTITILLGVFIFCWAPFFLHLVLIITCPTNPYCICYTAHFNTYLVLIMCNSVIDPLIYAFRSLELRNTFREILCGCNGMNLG
# Procedure, shortened: as §1
# Human opioid (ORL1) = target: T3, Human opioid (ORL1) (Homo sapiens, UniProt P41146); assay: Radioligand binding, human opioid ORL1 membranes, FlashPlate, [125I]-Nociceptin; conditions: compound at 10 μM, [125I]-Nociceptin; for A10: inhibition of radioligand binding: FlashPlate
# T3 construct: purchased Perkin Elmer Biosignal
# T3 sequence (P41146 whole entry): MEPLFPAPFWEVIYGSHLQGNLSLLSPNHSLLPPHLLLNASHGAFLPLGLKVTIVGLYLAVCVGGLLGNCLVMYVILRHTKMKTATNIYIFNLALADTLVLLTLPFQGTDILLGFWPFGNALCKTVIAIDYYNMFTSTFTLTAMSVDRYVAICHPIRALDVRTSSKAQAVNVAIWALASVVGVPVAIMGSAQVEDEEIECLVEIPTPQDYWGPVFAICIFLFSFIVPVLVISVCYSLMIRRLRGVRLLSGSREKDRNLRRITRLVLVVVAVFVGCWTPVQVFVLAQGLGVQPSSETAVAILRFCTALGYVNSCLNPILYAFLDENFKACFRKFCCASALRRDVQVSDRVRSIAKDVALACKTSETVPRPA
# Procedure, shortened: as §1
# Human δ-opioid (DOP) = target: T4, Human δ-opioid (DOP) (Homo sapiens, UniProt P41143); assay: Radioligand binding, human δ-opioid (DOP) membranes, FlashPlate, [3H]-Bremazocine; conditions: compound at 10 μM, [3H]-Bremazocine; for A1: inhibition of radioligand binding: FlashPlate
# T4 construct: purchased Perkin Elmer Biosignal
# T4 sequence (P41143 whole entry): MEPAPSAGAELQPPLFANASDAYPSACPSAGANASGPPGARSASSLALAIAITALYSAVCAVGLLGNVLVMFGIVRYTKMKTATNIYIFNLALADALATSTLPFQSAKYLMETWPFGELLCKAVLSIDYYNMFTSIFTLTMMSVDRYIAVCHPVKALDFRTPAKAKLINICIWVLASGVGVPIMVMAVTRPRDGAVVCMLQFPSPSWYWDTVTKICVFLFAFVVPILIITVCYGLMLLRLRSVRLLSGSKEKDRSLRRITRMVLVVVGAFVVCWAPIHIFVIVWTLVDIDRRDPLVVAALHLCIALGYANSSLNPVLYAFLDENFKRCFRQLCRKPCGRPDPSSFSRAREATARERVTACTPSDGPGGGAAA
# Procedure, shortened: as §1
# [1] = target: T5, Human melanin-concentrating hormone (MCH1) (Homo sapiens, UniProt Q99705); assay: Radioligand binding, human melanin-concentrating hormone MCH1 membranes, FlashPlate, [125I]-S36057; conditions: compound at 10 μM; for A6: inhibition of radioligand binding: [125I]-S36057, FlashPlate
# T5 construct: purchased Perkin Elmer Biosignal
# T5 sequence (Q99705 whole entry): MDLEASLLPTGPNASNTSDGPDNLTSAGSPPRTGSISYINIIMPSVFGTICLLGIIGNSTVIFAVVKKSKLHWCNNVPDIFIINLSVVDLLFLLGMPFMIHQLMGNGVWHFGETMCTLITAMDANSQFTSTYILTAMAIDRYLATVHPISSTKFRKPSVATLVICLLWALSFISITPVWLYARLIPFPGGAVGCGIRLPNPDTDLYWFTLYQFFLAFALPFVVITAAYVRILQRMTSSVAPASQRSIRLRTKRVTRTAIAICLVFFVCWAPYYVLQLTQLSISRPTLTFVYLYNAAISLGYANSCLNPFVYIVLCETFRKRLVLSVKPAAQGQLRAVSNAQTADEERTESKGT
# Procedure, shortened: as §1
# Human Melanocortin (MC4) = target: T6, Human Melanocortin (MC4) (Homo sapiens, UniProt P32245); assay: Radioligand binding, human melanocortin MC4 membranes, FlashPlate, [125I]-NDP-αMSH; conditions: compound at 10 μM, [125I]-NDP-αMSH; for A4: inhibition of radioligand binding: FlashPlate
# T6 construct: purchased Perkin Elmer Biosignal
# T6 sequence (P32245 whole entry): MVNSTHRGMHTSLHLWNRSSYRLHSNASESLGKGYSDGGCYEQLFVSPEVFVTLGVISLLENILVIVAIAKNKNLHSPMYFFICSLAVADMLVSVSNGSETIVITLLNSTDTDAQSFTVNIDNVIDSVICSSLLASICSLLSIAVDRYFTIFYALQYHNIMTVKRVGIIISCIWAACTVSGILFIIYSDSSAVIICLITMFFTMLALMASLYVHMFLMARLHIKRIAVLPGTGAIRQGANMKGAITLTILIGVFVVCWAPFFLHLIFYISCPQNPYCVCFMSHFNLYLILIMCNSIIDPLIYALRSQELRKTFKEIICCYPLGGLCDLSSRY
# Procedure, shortened: as §1
# Human κ-Opioid (KOP) = target: T7, Human κ-Opioid (KOP) (Homo sapiens, UniProt P41145); assay: Radioligand binding, human κ-opioid (KOP) membranes, filtration, [3H]-Diprenorphine; conditions: compound at 10 μM, [3H]-Diprenorphine; for A2: inhibition of radioligand binding: filtration
# T7 construct: purchased Perkin Elmer Biosignal
# T7 sequence (P41145 whole entry): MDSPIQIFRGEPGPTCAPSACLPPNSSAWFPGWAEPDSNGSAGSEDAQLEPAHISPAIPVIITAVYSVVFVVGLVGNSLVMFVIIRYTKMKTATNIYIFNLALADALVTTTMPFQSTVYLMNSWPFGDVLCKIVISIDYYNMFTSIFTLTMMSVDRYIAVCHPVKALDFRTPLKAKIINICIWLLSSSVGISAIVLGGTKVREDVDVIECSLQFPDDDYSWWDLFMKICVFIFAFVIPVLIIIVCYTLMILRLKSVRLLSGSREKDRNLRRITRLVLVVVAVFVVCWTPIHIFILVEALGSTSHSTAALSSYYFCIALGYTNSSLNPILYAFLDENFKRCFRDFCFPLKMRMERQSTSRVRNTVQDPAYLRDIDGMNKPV
# Procedure, shortened: (§2)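 Percent inhibition of radioligand binding measured on recombinant human membranes: NK1 with [125I]-Substance P, KOP with [3H]-Diprenorphine. Incubation 1 h at room temperature, then harvest onto 0.3% PEI-soaked filters, cold Tris-HCl pH 7.4 washes and scintillation counting; non-specific binding from reference ligand wells.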
# Human neurokinin (NK1) = target: T8, Human neurokinin (NK1) (Homo sapiens, UniProt P25103); assay: Radioligand binding, human neurokinin NK1 membranes, filtration, [125I]-Substance P; conditions: compound at 10 μM, [125I]-Substance P; for A8: inhibition of radioligand binding: filtration
# T8 construct: purchased Perkin Elmer Biosignal
# T8 sequence (P25103 whole entry): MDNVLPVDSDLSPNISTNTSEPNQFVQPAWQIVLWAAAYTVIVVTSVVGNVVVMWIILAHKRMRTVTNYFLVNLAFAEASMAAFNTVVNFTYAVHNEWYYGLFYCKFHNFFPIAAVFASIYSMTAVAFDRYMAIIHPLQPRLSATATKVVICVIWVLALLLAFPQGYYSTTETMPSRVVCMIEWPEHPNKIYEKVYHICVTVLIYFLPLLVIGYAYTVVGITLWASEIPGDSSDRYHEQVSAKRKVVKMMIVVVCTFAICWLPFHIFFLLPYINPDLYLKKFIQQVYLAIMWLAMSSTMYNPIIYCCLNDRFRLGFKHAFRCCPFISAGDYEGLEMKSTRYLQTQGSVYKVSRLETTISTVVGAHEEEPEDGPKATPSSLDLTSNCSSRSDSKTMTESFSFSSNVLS
# Procedure, shortened: as §2
# [2] = target: T9, Human neuropeptide Y (NPY-Y1) (Homo sapiens, UniProt P25929); assay: Radioligand binding, human neuropeptide Y NPY-Y1 membranes, FlashPlate, [125I]-PYY; conditions: compound at 10 μM, [125I]-PYY; for A9: inhibition of radioligand binding: FlashPlate
# T9 construct: purchased Perkin Elmer Biosignal
# T9 sequence (P25929 1-384): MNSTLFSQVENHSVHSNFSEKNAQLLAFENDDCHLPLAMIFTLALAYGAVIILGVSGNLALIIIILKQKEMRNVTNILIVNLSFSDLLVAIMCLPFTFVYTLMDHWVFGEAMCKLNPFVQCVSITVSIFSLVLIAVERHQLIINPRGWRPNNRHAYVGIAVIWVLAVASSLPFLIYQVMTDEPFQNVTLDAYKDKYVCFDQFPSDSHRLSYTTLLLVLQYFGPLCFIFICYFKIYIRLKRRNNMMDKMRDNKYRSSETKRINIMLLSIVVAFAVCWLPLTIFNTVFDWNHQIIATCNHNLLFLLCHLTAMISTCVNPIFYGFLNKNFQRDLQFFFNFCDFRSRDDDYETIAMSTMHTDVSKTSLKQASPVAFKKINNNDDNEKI
# Procedure, shortened: as §1
# Mouse urotensin (mUR2) = target: T10, Mouse urotensin (mUR2) (Mus musculus, UniProt Q8VIH9); assay: Radioligand binding, mouse urotensin mUR2 membranes, FlashPlate, [125I]-Urotensin II; conditions: compound at 10 μM, [125I]-Urotensin II; for A11: inhibition of radioligand binding: FlashPlate
# T10 construct: purchased Perkin Elmer Biosignal
# T10 sequence (Q8VIH9 1-385): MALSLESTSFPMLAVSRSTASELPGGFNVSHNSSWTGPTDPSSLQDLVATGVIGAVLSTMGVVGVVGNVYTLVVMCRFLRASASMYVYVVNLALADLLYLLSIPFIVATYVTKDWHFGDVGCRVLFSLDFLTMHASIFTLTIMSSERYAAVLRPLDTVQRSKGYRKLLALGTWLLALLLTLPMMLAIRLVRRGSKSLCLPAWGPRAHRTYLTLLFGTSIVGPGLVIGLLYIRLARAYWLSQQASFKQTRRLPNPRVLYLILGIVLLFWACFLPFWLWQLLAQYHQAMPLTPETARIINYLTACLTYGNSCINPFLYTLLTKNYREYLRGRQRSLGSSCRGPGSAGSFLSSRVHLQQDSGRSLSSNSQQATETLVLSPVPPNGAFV
# Procedure, shortened: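 Cloned mouse urotensin (mUR2) receptor membranes from Perkin Elmer Biosignal were immobilized in FlashPlate microplates using a proprietary coating. Each well got 19.5 μl buffer, then 0.5 μl of DMSO, reference ligand, or compound. Adding 5 μl of [125I]-Urotensin II, diluted to 5× final concentration in binding buffer, started binding. Plates were sealed with TopSeal-A and incubated 1 hour at room temperature in the dark. Wells were counted for 30 seconds each on a TopCount after a 60-second delay, and percentage inhibition was calculated.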
# Human μ-opioid (MOP) = target: T11, Human μ-opioid (MOP) (Homo sapiens, UniProt P35372); assay: Radioligand binding, human μ-opioid (MOP) membranes, FlashPlate, [3H]-Naloxone; conditions: compound at 10 μM, [3H]-Naloxone; for A7: inhibition of radioligand binding: FlashPlate
# T11 construct: purchased Perkin Elmer Biosignal
# T11 sequence (P35372 whole entry): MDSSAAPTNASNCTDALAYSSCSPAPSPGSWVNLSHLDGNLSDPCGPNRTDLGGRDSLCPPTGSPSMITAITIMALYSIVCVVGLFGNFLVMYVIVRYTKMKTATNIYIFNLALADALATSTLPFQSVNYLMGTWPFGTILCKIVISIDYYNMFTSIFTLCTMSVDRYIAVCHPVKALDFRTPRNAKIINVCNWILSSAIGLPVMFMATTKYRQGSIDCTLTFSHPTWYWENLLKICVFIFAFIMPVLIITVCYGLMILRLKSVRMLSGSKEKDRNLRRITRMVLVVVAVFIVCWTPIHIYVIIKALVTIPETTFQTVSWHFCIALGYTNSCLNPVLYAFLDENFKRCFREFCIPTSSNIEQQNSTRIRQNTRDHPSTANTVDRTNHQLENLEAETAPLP
# Procedure, shortened: as §1
# T1 sequence (P33032 whole entry): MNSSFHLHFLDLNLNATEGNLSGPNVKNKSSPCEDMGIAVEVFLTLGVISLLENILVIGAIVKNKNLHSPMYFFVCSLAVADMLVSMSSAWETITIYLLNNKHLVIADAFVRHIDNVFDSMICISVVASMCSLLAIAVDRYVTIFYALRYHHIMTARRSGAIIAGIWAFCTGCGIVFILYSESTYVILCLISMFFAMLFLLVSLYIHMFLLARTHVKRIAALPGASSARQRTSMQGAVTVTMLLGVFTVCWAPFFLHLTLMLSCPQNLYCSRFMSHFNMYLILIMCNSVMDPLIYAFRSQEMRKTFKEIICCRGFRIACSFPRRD
Compound,"A5: inhibition of radioligand binding, human melanocortin (MC5) (Human melanocortin (MC5))","A1: inhibition of radioligand binding, human δ-opioid (DOP) (Human δ-opioid (DOP))","A2: inhibition of radioligand binding, human κ-opioid (KOP) (Human κ-Opioid (KOP))","A8: inhibition of radioligand binding, human neurokinin (NK1) (Human neurokinin (NK1))","A9: inhibition of radioligand binding, human neuropeptide Y (NPY-Y1) [2]","A11: inhibition of radioligand binding, mouse urotensin (mUR2) (Mouse urotensin (mUR2))","A7: inhibition of radioligand binding, human μ-opioid (MOP) (Human μ-opioid (MOP))",A5: inhibition of radioligand binding (Human melanocortin (MC5)),A3: inhibition of radioligand binding (Human Melanocortin (MC3)),A10: inhibition of radioligand binding (Human opioid (ORL1)),A1: inhibition of radioligand binding (Human δ-opioid (DOP)),A6: inhibition of radioligand binding [1],A4: inhibition of radioligand binding (Human Melanocortin (MC4)),A2: inhibition of radioligand binding (Human κ-Opioid (KOP)),A8: inhibition of radioligand binding (Human neurokinin (NK1)),A9: inhibition of radioligand binding [2],A11: inhibition of radioligand binding (Mouse urotensin (mUR2)),A7: inhibition of radioligand binding (Human μ-opioid (MOP)),other results
CO[C@H]1[C@H](O)[C@@H](COCc2ccc(Cl)cc2)OC(OCc2ccccc2)[C@@H]1NC(=O)CCCNC(=N)N (stereo partly shown) [compound 93],–,–,–,–,–,–,–,–,–,–,–,–,–,–,–,–,–,–,"A5 radioligand binding, percentage inhibition (Human melanocortin (MC5)): + (“+” indicates greater than 50% inhibition at 10 μM); A3 radioligand binding, percentage inhibition (Human Melanocortin (MC3)): − (“−” indicates less than 50% inhibition at 10 μM); A10 radioligand binding, percentage inhibition (Human opioid (ORL1)): − (“−” indicates less than 50% inhibition at 10 μM); A1 radioligand binding, percentage inhibition (Human δ-opioid (DOP)): − (“−” indicates less than 50% inhibition at 10 μM); A6 radioligand binding, percentage inhibition ([1]; [125I]-S36057): − (“−” indicates less than 50% inhibition at 10 μM); A4 radioligand binding, percentage inhibition (Human Melanocortin (MC4)): − (“−” indicates less than 50% inhibition at 10 μM); A2 radioligand binding, percentage inhibition (Human κ-Opioid (KOP)): − (“−” indicates less than 50% inhibition at 10 μM); A8 radioligand binding, percentage inhibition (Human neurokinin (NK1)): + (“+” indicates greater than 50% inhibition at 10 μM); A9 radioligand binding, percentage inhibition [2]: − (“−” indicates less than 50% inhibition at 10 μM); A11 radioligand binding, percentage inhibition (Mouse urotensin (mUR2)): − (“−” indicates less than 50% inhibition at 10 μM); A7 radioligand binding, percentage inhibition (Human μ-opioid (MOP)): + (“+” indicates greater than 50% inhibition at 10 μM)"
CSC1O[C@H](COCc2ccc(Cl)cc2)[C@@H](O)[C@@H](OCc2ccc(-c3ccccc3)cc2)[C@H]1NC(=O)CCNC(=N)N (stereo partly shown) [compound 291],− (“−” indicates less than 50% inhibition at 10 μM),− (“−” indicates less than 50% inhibition at 10 μM),− (“−” indicates less than 50% inhibition at 10 μM),+ (“+” indicates greater than 50% inhibition at 10 μM),− (“−” indicates less than 50% inhibition at 10 μM),− (“−” indicates less than 50% inhibition at 10 μM),− (“−” indicates less than 50% inhibition at 10 μM),–,–,–,–,–,–,–,–,–,–,–,"A3: inhibition of radioligand binding, human melanocortin (MC3) (Human Melanocortin (MC3)): − (“−” indicates less than 50% inhibition at 10 μM); A10: inhibition of radioligand binding, human opioid (ORL1) (Human opioid (ORL1)): − (“−” indicates less than 50% inhibition at 10 μM); A6: inhibition of radioligand binding, human melanin-concentrating hormone (MCH1) ([1]; [125I]-S36057): − (“−” indicates less than 50% inhibition at 10 μM); A4: inhibition of radioligand binding, human melanocortin (MC4) (Human Melanocortin (MC4)): + (“+” indicates greater than 50% inhibition at 10 μM)"
"NCCC(=O)NC1C(OCc2ccc(Cl)cc2)OC(COCc2ccc3ccccc3c2)C(O)C1OCc1ccc2ccccc2c1 (single isomer, unassigned) [compound 478]",+ (“+” indicates greater than 50% inhibition at 10 μM),− (“−” indicates less than 50% inhibition at 10 μM),− (“−” indicates less than 50% inhibition at 10 μM),+ (“+” indicates greater than 50% inhibition at 10 μM),− (“−” indicates less than 50% inhibition at 10 μM),− (“−” indicates less than 50% inhibition at 10 μM),− (“−” indicates less than 50% inhibition at 10 μM),–,–,–,–,–,–,–,–,–,–,–,"A3: inhibition of radioligand binding, human melanocortin (MC3) (Human Melanocortin (MC3); 10 µM): + (“+” indicates greater than 50% inhibition at 10 μM); A10: inhibition of radioligand binding, human opioid (ORL1) (Human opioid (ORL1); 10 µM): − (“−” indicates less than 50% inhibition at 10 μM); A6: inhibition of radioligand binding, human melanin-concentrating hormone (MCH1) ([1]; [125I]-S36057, 10 µM): + (“+” indicates greater than 50% inhibition at 10 μM); A4: inhibition of radioligand binding, human melanocortin (MC4) (Human Melanocortin (MC4); 10 µM): + (“+” indicates greater than 50% inhibition at 10 μM)"
COCC1OC(OCc2ccc3ccccc3c2)C(NC(=O)CCCNC(=N)N)C(OCc2ccccc2)C1O (stereo not shown) [compound 234],–,–,–,–,–,–,–,− (“−” indicates less than 50% inhibition at 10 μM),− (“−” indicates less than 50% inhibition at 10 μM),− (“−” indicates less than 50% inhibition at 10 μM),− (“−” indicates less than 50% inhibition at 10 μM),− (“−” indicates less than 50% inhibition at 10 μM),− (“−” indicates less than 50% inhibition at 10 μM),− (“−” indicates less than 50% inhibition at 10 μM),+ (“+” indicates greater than 50% inhibition at 10 μM),− (“−” indicates less than 50% inhibition at 10 μM),− (“−” indicates less than 50% inhibition at 10 μM),− (“−” indicates less than 50% inhibition at 10 μM),–
COCC1OC(OCc2ccc(Cl)cc2)C(NC(=O)CCNC(=N)N)C(OCc2ccc3ccccc3c2)C1O (stereo not shown) [compound 211],–,–,–,–,–,–,–,+ (“+” indicates greater than 50% inhibition at 10 μM),− (“−” indicates less than 50% inhibition at 10 μM),− (“−” indicates less than 50% inhibition at 10 μM),− (“−” indicates less than 50% inhibition at 10 μM),+ (“+” indicates greater than 50% inhibition at 10 μM),+ (“+” indicates greater than 50% inhibition at 10 μM),+ (“+” indicates greater than 50% inhibition at 10 μM),+ (“+” indicates greater than 50% inhibition at 10 μM),− (“−” indicates less than 50% inhibition at 10 μM),− (“−” indicates less than 50% inhibition at 10 μM),+ (“+” indicates greater than 50% inhibition at 10 μM),–

# Source: US20080009418A1, “Selective Inhibitors” (Alchemia LTD., priority 2004, published 2008)
